Values joined by “and” are separate entries in the source; they are usually repeats but may differ in a detail not shown here. Equal entries are not always repeated.
Key:
[1] = molecular target: Construct 2 (recombinant Hokkaido N1 NA, GCN4-pLI stalk) (Influenza A virus, UniProt Q7TER1); assay type: biochemical, Influenza virus strain A/Hokkaido/15/02 H1N1
[2] = molecular target: Construct 4 (recombinant Hokkaido N1 NA, Tetrabrachion stalk) (Influenza A virus, UniProt Q7TER1); assay type: biochemical, Influenza virus strain A/Hokkaido/15/02 H1N1
Construct 4 (recombinant Hokkaido N1 NA, Tetrabrachion stalk), sequence (Q7TER1 70-470): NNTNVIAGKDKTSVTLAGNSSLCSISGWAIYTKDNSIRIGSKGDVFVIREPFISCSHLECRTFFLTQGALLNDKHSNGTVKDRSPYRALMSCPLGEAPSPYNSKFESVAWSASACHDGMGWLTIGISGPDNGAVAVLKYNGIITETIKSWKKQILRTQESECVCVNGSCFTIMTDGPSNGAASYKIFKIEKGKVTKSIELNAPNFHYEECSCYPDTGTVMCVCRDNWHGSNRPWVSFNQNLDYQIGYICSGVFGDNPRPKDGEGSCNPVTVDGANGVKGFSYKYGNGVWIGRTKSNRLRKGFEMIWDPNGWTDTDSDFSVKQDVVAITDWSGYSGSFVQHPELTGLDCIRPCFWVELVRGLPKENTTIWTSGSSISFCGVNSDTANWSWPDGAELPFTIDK

Hokkaido virus NA = Hokkaido virus NA (Influenza A virus, UniProt Q7TER1); assay type: biochemical, Influenza virus strain A/Hokkaido/15/02 H1N1
Hokkaido virus NA, sequence (Q7TER1 entry or part of it, added parts left off): as the sequence (Q7TER1 70-470) above

[3] = molecular target: Construct 4: FLAG-tagged recombinant Hokkaido N1 neuraminidase with an artificial Tetrabrachion stalk (Staphylothermus marinus | influenza A virus A/Hokkaido/15/02 (H1N1)); assay: SEC

Construct 2 (recombinant Hokkaido N1 NA, GCN4-pLI stalk), sequence (Q7TER1 70-470): as above

Compound | K m value for MUNANA [1] | K m value for MUNANA [2] | K m value for MUNANA (Hokkaido virus NA) | stoichiometry N [3]
CC(=O)N[C@H]1[C@H]([C@H](O)[C@H](O)CO)OC(Oc2ccc3c(C)cc(=O)oc3c2)(C(=O)O)C[C@@H]1O (stereo partly drawn) [MUNANA, 4-Methylumbelliferyl N-acetyl-a-D-Neuraminic acid] | 54.4 µM and 54.1 µM and 54.1 ± 4.4 µM | 34.7 µM and 34.7 ± 1.9 µM | 24.1 µM and 24.1 ± 1.1 µM | 
Construct 4: FLAG-tagged recombinant Hokkaido N1 neuraminidase with an artificial Tetrabrachion stalk (enzyme) |  |  |  | 4
